In patent publication US20020103228A1, “Composition and method for use of pyridinium derivatives in cosmetic and therapeutic applications” (TORRENT PHARMACEUTICALS LTD., priority 1999, published 2002):
Where two headings read alike, the source gives them in different places.

Assays:
[1] = tested on: Rat-Tail Tendon collagen of diabetic male wister rats; conditions: 8 weeks of treatment
Protocol: To evaluate AGE breaker efficacy of compounds of formula (I) the process of aging was mimicked by induction of diabetes in male wister rats. Diabetes was induced in male wister rats (by repeated STZ injections) to mimic the process of aging and formation of AGE. Diabetic male wister rats were treated with compounds of formula (I) for a period of 8 weeks after induction of diabetes and collagen solubility was measured in Rat-Tail Tendon. Rat Tail Tendon were selected because of their similarity with skin collagen (i.e. Type I collagen). After 8 weeks of treatment the “control” and “treated” groups of animals were sacrificed and tail tendons were homogenized, digested with hydrochloric acid and the supernatant of both the groups of animals was assayed for hydroxyprolin for acid soluble collagen contents as per method of Stegemann and Stalder (clinica Chimica Acta, 18 (1967) 267-273).
Diabetes and aging are degenerative process where normal proteins like collagen become cross-linked. The cross linking of skin collagen can lead to complications like Aging. To test the ability of compounds of invention to break pre-formed AGE, diabetic animals were treated for 8 weeks with the compounds. After the treatment the collagen solubility was estimated to determine their AGE breaking activity.

[2] = Free radical scavenging activity on ABTS radical cation; assay type: biochemical
Outline: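 ABTS radical cation generated with horseradish peroxidase and 1.08 mM H2O2 stock in PBS, preincubated 30 min at 30 °C. Serial dilutions were added, and absorbance at 730 nm was read immediately against PBS blank. % activity = (OD test/OD control ×100) − 100.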

AGE-BSA = target: T1, AGE-BSA (Bos taurus, UniProt P02769); assay: In-vitro AGE breaking activity by ELISA; assay type: biochemical, Bovine; conditions: 37° C., 24 hours
T1 construct: Bovine serum albumin (fraction V) (BSA); from tissue; host or cells: bovine serum (fraction V); glycated in house with 1.6 M glucose at 37 °C for 16 weeks
Protocol: AGE breaking activity has been confirmed by the screening procedure as mentioned below:
Methods of experiment: Elisa (Enzyme Linked Immunosorbent Assay)
160 mg/ml of protein, bovine serum albumin, BSA and 1.6M glucose sugar were dissolved in phosphate buffered saline, PBS. Sodium azide was added at 0.02% concentration as a preservative. The solution was filtered asceptically through a […] filter and kept for aging at 37° C. for 16 weeks. After 16 weeks the solution was dialyzed against PBS, aliquoted and stored at −20° C.
To determine the AGE breaking activity, 10 μg/ml of the 16 weeks AGE-BSA was incubated with different concentrations of the test compounds at 37° C. for 24 hours and AGE breaking activity of the test compounds by ELISA was determined.
ELISA was performed as follows
1. Different concentrations of 16 weeks AGE-BSA were coated on a microtiter plate as standard. Each concentration is coated in triplicates.
2. The test samples were coated on microtiter plate at a concentration of 5 ng to 20 ng per well in triplicates
3. The plate was incubated at 37° C. for one hour.
4. After incubation the plate was washed with PBST (PBS with 0.05% Tween 20).
5. Blocking with 5% skimmed milk in PBS at 37° C. for one hour was done.
6. The plate was washed with PBST.
7. Primary antibody against AGE-BSA was added and the plate is incubated at 37° C. for one hour.
8. The plate was washed with PBST
9. Secondary antibody anti rabbit HRPO (Horse-Radish Per Oxidase) conjugate was added and the plate is incubated at 37° C. for one hour.
10. The plate was washed with PBST.
11. Colour development with OPD (orthophenylenediamine dihydrochloride) and hydrogen peroxide was done.
12. OD (optical density) at (450 nm reading-620 nm reading) was measured after incubation at 37° C. for 15 minutes with Microplate ELISA Reader
The breaker activity of the compounds were determined by the following formula: [formula]
OD450-620Control=Absorbance of 20 ng AGE-BSA after incubation at 37° C. for 24 hours without test compound
OD450-620Test=Absorbance of 20 ng AGE-BSA after incubation at 37° C. for 24 hours with required concentration of test compound
Using specific examples, the % AGE breaking activity was calculated and recorded in Table 2.

T1 sequence (P02769 25-607): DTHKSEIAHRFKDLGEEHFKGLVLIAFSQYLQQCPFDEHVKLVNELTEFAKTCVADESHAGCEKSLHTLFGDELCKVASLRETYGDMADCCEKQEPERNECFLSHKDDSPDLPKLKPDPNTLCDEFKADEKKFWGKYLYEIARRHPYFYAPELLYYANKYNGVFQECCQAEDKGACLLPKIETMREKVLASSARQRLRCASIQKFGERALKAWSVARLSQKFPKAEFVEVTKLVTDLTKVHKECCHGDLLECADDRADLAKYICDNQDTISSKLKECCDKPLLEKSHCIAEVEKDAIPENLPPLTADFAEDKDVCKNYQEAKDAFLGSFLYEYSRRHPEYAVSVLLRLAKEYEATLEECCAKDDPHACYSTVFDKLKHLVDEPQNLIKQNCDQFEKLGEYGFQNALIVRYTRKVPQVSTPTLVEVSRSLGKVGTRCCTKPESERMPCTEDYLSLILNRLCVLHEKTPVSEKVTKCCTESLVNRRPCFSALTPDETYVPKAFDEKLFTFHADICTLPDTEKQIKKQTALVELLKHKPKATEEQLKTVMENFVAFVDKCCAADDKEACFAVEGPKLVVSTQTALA

## O=C(NNC(=O)c1ccc[n+](CC(=O)c2cccs2)c1)c1ccc[n+](CC(=O)c2cccs2)c1.[Cl-].[Cl-] [Compound 33, N,N′-bis[3-carbonyl-1-(2-thien-2′-yl-2-oxoethyl)pyridinium]hydrazine dichloride]
[1]; 15.0 mg/kg
  % Improvement in collagen solubility with respect to untreated control subject.: 80.45%
[2]; 11.5 μM
  Relative Free Radical Scavenging Activity (%) on ABTS: 58.4%
[2]; 23.0 μM
  Relative Free Radical Scavenging Activity (%) on ABTS: 72.8%
[2]; 46.0 μM
  Relative Free Radical Scavenging Activity (%) on ABTS: 98.5%
[2]; 92.5 μM
  Relative Free Radical Scavenging Activity (%) on ABTS: 100%
AGE-BSA; 5 mM test compound
  % Breakage: 20%

## O=C(NNC(=O)c1ccc[n+](CC(=O)c2cccs2)c1)c1ccc[n+](CC(=O)c2cccs2)c1.[Br-].[Br-] [Compound 6, N,N′-bis[3-carbonyl-1-(2-thien-2′-yl-2-oxoethyl)pyridinium]hydrazine dibromide]
[1]; 7.5 mg/kg
  % Improvement in collagen solubility with respect to untreated control subject.: 56.70%
AGE-BSA; 5 mM test compound
  % Breakage: 53%

## COCCNC(=O)c1ccc[n+](CC(=O)c2ccc(Cl)cc2Cl)c1.[Br-] [Compound 38, 1-(2′,4′-dichlorophenyl-2-oxoethyl)-3-(2-methoxyethylaminocarbonyl)-pyridinium bromide]
[2]; 11.5 μM
  Relative Free Radical Scavenging Activity (%) on ABTS: 47.2%
[2]; 23.0 μM
  Relative Free Radical Scavenging Activity (%) on ABTS: 54.8%
[2]; 46.0 μM
  Relative Free Radical Scavenging Activity (%) on ABTS: 71.0%
[2]; 92.5 μM
  Relative Free Radical Scavenging Activity (%) on ABTS: 89.5%
[2]; 925 μM
  Relative Free Radical Scavenging Activity (%) on ABTS: 100%
AGE-BSA; 5 mM test compound
  % Breakage: 17.66%

## O=C(NNC(=O)c1ccc[n+](CC(=O)c2cc([N+](=O)[O-])cs2)c1)c1ccc[n+](CC(=O)c2cc([N+](=O)[O-])cs2)c1.[Cl-].[Cl-] [Compound 56, N,N′-bis[3-carbonyl-1-(2-(4-nitrothien-2-yl)-2-oxoethyl)pyridinium]hydrazine dichloride]
[2]; 11.5 μM
  Relative Free Radical Scavenging Activity (%) on ABTS: 43.0%
[2]; 23.0 μM
  Relative Free Radical Scavenging Activity (%) on ABTS: 57.2%
[2]; 46.0 μM
  Relative Free Radical Scavenging Activity (%) on ABTS: 71.6%
[2]; 92.5 μM
  Relative Free Radical Scavenging Activity (%) on ABTS: 97.7%
[2]; 925 μM
  Relative Free Radical Scavenging Activity (%) on ABTS: 100%
AGE-BSA; 10 mM test compound
  % Breakage: 75.92%

## O=C(NCCO)c1ccc[n+](CC(=O)c2cccs2)c1.[Br-] [Compound 90, 1-(2-Thien-2′-yl-2-oxoethyl)-3-((2-hydroxyethyl)aminocarbonyl)pyridinium bromide]
[2]; 11.5 μM
  Relative Free Radical Scavenging Activity (%) on ABTS: 47.8%
[2]; 23.0 μM
  Relative Free Radical Scavenging Activity (%) on ABTS: 58.8%
[2]; 46.0 μM
  Relative Free Radical Scavenging Activity (%) on ABTS: 78.2%
[2]; 92.5 μM
  Relative Free Radical Scavenging Activity (%) on ABTS: 99.5%
[2]; 925 μM
  Relative Free Radical Scavenging Activity (%) on ABTS: 100%
AGE-BSA; 10 mM test compound
  % Breakage: 50%

## CS(=O)(=O)NNC(=O)c1ccc[n+](CC(=O)N2CCC(Cc3ccccc3)CC2)c1.[Cl-] [Compound 51, 1-(2-(4-benzylpiperidin-1-yl)-2-oxoethyl)-3-(methanesulfonyl hydrazinocarbonyl)pyridinium chloride]
[2]; 11.5 μM
  Relative Free Radical Scavenging Activity (%) on ABTS: 0.00%
[2]; 23.0 μM
  Relative Free Radical Scavenging Activity (%) on ABTS: 21.64%
[2]; 46.0 μM
  Relative Free Radical Scavenging Activity (%) on ABTS: 52.82%
[2]; 92.5 μM
  Relative Free Radical Scavenging Activity (%) on ABTS: 83.94%
AGE-BSA; 10 mM test compound
  % Breakage: 20.94%

## NC(=O)c1cc(C(=O)NNC(=O)c2ccc[n+](CC(=O)c3cccs3)c2)c[n+](CC(=O)c2cccs2)c1.[Cl-].[Cl-] [Compound 60, 1-[1-(2-thien-2′-yl-2-oxoethyl)-5-aminocarbonyl-3-carbonylpyridinium]-2-[1-(2-Thien-2′-yl-2-oxoethyl)-3-carbonylpyridinium]hydrazine dichloride]
[2]; 11.5 μM
  Relative Free Radical Scavenging Activity (%) on ABTS: 44.1%
[2]; 23.0 μM
  Relative Free Radical Scavenging Activity (%) on ABTS: 59.8%
[2]; 46.0 μM
  Relative Free Radical Scavenging Activity (%) on ABTS: 69.4%
[2]; 92.5 μM
  Relative Free Radical Scavenging Activity (%) on ABTS: 99.9%
[2]; 925 μM
  Relative Free Radical Scavenging Activity (%) on ABTS: 100%
AGE-BSA; 1 mM test compound
  % Breakage: 95.36%

## O=C(NNS(=O)(=O)C(F)(F)F)c1ccc[n+](CC(=O)c2cccs2)c1.[Br-] [Compound 68, 1-(2-thien-2′-yl-2-oxoethyl)-3-(trifluoromethanesulfonyl hydrazinocarbonyl)-pyridinium bromide]
[2]; 11.5 μM
  Relative Free Radical Scavenging Activity (%) on ABTS: 38.47%
[2]; 23.0 μM
  Relative Free Radical Scavenging Activity (%) on ABTS: 43.54%
[2]; 46.0 μM
  Relative Free Radical Scavenging Activity (%) on ABTS: 89.32%
[2]; 92.5 μM
  Relative Free Radical Scavenging Activity (%) on ABTS: 95.07%
AGE-BSA; 10 mM test compound
  % Breakage: 92.64%

## CS(=O)(=O)NNC(=O)c1ccc[n+](CC(=O)c2ccc([N+](=O)[O-])s2)c1.[Cl-] [Compound 67]
[2]; 11.5 μM
  Relative Free Radical Scavenging Activity (%) on ABTS: 13.11%
[2]; 23.0 μM
  Relative Free Radical Scavenging Activity (%) on ABTS: 50.70%
[2]; 46.0 μM
  Relative Free Radical Scavenging Activity (%) on ABTS: 97.46%
[2]; 92.5 μM
  Relative Free Radical Scavenging Activity (%) on ABTS: 99.43%
AGE-BSA; 1 mM test compound
  % Breakage: 42.01%

## CCCCOC(=O)c1ccc[n+](CC(=O)Nc2ccccc2)c1.[Cl-] [Compound 93, 1-(2-Phenylamino-2-oxoethyl)-3-(n-butyloxycarbonyl)pyridinium chloride]
[2]; 11.5 μM
  Relative Free Radical Scavenging Activity (%) on ABTS: 8.5%
[2]; 23.0 μM
  Relative Free Radical Scavenging Activity (%) on ABTS: 8.6%
[2]; 46.0 μM
  Relative Free Radical Scavenging Activity (%) on ABTS: 9.6%
[2]; 92.5 μM
  Relative Free Radical Scavenging Activity (%) on ABTS: 11.4%
[2]; 925 μM
  Relative Free Radical Scavenging Activity (%) on ABTS: 25.0%
AGE-BSA; 10 mM test compound
  % Breakage: 57%

## CS(=O)(=O)NNC(=O)c1ccc[n+](CC(=O)c2cccs2)c1.[Cl-] [Compound 45, 1-(2-thien-2′-yl-2-oxoethyl)-3-(methanesulfonyl hydrazinocarbonyl)pyridinium chloride]
[2]; 11.5 μM
  Relative Free Radical Scavenging Activity (%) on ABTS: 53.9%
[2]; 23.0 μM
  Relative Free Radical Scavenging Activity (%) on ABTS: 56.2%
[2]; 46.0 μM
  Relative Free Radical Scavenging Activity (%) on ABTS: 78.7%
[2]; 92.5 μM
  Relative Free Radical Scavenging Activity (%) on ABTS: 99.8%
[2]; 925 μM
  Relative Free Radical Scavenging Activity (%) on ABTS: 100%
AGE-BSA; 10 mM test compound
  % Breakage: 17.53%

## O=C(C[n+]1cccc(C(=O)NNc2ccccc2)c1)Nc1ccccc1.[Cl-] [Compound 65, 1-(2-phenylamino-2-oxoethyl)-3-(phenyl hydrazinocarbonyl)pyridinium chloride]
[2]; 11.5 μM
  Relative Free Radical Scavenging Activity (%) on ABTS: 27.67%
[2]; 23.0 μM
  Relative Free Radical Scavenging Activity (%) on ABTS: 59.20%
[2]; 46.0 μM
  Relative Free Radical Scavenging Activity (%) on ABTS: 94.14%
[2]; 92.5 μM
  Relative Free Radical Scavenging Activity (%) on ABTS: 100.00%
AGE-BSA; 2.5 mM test compound
  % Breakage: 68.35%

## CCOC(=O)NNC(=O)c1ccc[n+](CC(=O)c2cccs2)c1.[Br-] [Compound 54, 1-(2-thien-2′-yl-2-oxoethyl)-3-(ethoxycarbonyl hydrazinocarbonyl)pyridinium bromide]
[2]; 11.5 μM
  Relative Free Radical Scavenging Activity (%) on ABTS: 5.22%
[2]; 23.0 μM
  Relative Free Radical Scavenging Activity (%) on ABTS: 15.45%
[2]; 46.0 μM
  Relative Free Radical Scavenging Activity (%) on ABTS: 46.82%
[2]; 92.5 μM
  Relative Free Radical Scavenging Activity (%) on ABTS: 77.07%
AGE-BSA; 10 mM test compound
  % Breakage: 33.43%
